Reference: US20240025883A1, “PYRIMIDIN-2-YL SULFONAMIDE DERIVATIVES” (Hoffmann-La Roche Inc., priority 2021, published 2024)

Biological target: human GPR17 short isoform (Homo sapiens (Human), UniProt Q13304)
Test: GPR17 cAMP assay (hGPR17 cAMP, antagonist mode against EC80 of MDL29,951)
Assay type: cell-based
Conditions: CHO-K1 cells stably expressing human GPR17 short isoform; EC80 of agonist MDL29,951; forskolin 15 μM
Protocol: GPR17 cAMP Assay Protocol:
CHO-K1 cells stably expressing vector containing untagged human GPR17 short isoform (Roche) were cultured at 37° C./5% CO2 in DMEM (Dulbecco's Modified Eagle Medium):F-12 (1:1) supplemented with 10% foetal bovine serum and 400 μg/ml Geneticin.
Changes in intracellular cyclic adenosine monophosphate (cAMP) levels were quantified using the Nano-TRF Detection Assay kit (Roche Diagnostics, Cat. No. 05214386001). This assay allows for direct cAMP quantification in a homogeneous solution, cAMP is detected based on time-resolved fluorescence energy transfer (TR-FRET) and competitive binding of ruthenylated cAMP and endogenous cAMP to an anti-cAMP monoclonal antibody labeled with AlexaFluor-700. The Ruthenium complex serves as the FRET donor and transfers energy to AlexaFluor-700. The FRET signal is inversely proportional to the cAMP concentration.
CHO-GPR17S cells were detached with Accutase and resuspended in assay buffer consisting of Hank's Balanced Salt Solution (HBSS), 10 mM HEPES (4-(2-hydroxyethyl) piperazine-1-ethanesulfonic acid solution) and 0.1% bovine serum albumin (pH 7.4). The cells were seeded in black 384-well plates (Corning) at a density of 10,000 cells/20 μl assay buffer until the addition of compounds.
Test antagonist compounds were serially diluted in dimethyl sulfoxide (DMSO) and spotted in 384-well plates. The compounds were then diluted in HBSS buffer supplemented with an EC80 concentration of MDL29,951 (3-(2-Carboxy-4,6-dichloroindol-3-yl)propionic acid) (GPR17 agonist) plus 3-Isobutyl-1-methylxanthine (IBMX) (0.5 mM final concentration) and added to the cells at room temperature. Forskolin (15 μM final concentration) was added 5 minutes after the test compounds and the cells were incubated at room temperature for 30 minutes. The assay was stopped by adding cAMP detection mix (containing detergents for cell lysis) for 90 minutes at room temperature.
Cellular cAMP was measured using a Paradigm reader (Molecular Devices). The raw data was used to calculate the FRET signal based on the assay's P-factor as per cAMP kit instructions. The data was normalized to the maximal activity of a reference antagonist and dose response curves were fitted to the percent activity of the test compounds using a sigmoidal dose response model (Genedata Screener).

Chain of human GPR17 short isoform (Q13304 29-367): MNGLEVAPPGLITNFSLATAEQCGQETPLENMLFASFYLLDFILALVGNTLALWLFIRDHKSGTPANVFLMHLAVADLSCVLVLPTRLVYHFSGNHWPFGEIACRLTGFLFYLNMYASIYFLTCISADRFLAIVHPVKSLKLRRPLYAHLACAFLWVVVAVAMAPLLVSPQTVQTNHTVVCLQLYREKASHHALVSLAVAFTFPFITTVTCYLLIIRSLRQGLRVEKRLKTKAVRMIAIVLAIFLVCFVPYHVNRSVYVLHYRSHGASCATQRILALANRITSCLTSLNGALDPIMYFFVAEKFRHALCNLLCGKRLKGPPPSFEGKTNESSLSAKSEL

Structure (SMILES) | IC50 [nM]
COc1nc(NS(=O)(=O)c2c[nH]c3cc(Cl)ccc23)nc(OC2CC2)c1Br [Example 71, N-[5-bromo-4-(cyclopropoxy)-6-methoxy-pyrimidin-2-yl]-6-chloro-1H-indole-3-sulfonamide] | 11500
COc1nc(NS(=O)(=O)c2c[nH]c3cc(Cl)ccc23)nc(OC(F)F)c1C [Example 72, 6-chloro-N-[4-(difluoromethoxy)-6-methoxy-5-methyl-pyrimidin-2-yl]-1H-indole-3-sulfonamide] | 40
COc1nc(NS(=O)(=O)c2c[nH]c3cc(Cl)ccc23)nc(F)c1Br [Example 73, N-(5-bromo-4-fluoro-6-methoxy-pyrimidin-2-yl)-6-chloro-1H-indole-3-sulfonamide] | 124
COc1nc(NS(=O)(=O)c2c[nH]c3cc(Cl)ccc23)nc(Cl)c1OC [Example 75, 6-chloro-N-(4-chloro-5,6-dimethoxy-pyrimidin-2-yl)-1H-indole-3-sulfonamide] | 946
O=S(=O)(Nc1ncc(OCC(F)F)c(Cl)n1)c1c[nH]c2cc(Cl)ccc12 [Example 76, 6-chloro-N-[4-chloro-5-(2,2-difluoroethoxy)pyrimidin-2-yl]-1H-indole-3-sulfonamide] | 916
CCc1nc(NS(=O)(=O)c2c[nH]c3cc(Cl)ccc23)nc(OC)c1OCC(F)F [Example 77, 6-chloro-N-[5-(2,2-difluoroethoxy)-4-ethyl-6-methoxy-pyrimidin-2-yl]-1H-indole-3-sulfonamide] | 148
COc1nc(NS(=O)(=O)c2c[nH]c3cc(Cl)ccc23)nc(C)c1CC(F)F [Example 78, 6-chloro-N-[5-(2,2-difluoroethyl)-4-methoxy-6-methyl-pyrimidin-2-yl]-1H-indole-3-sulfonamide] | 244
COc1nc(NS(=O)(=O)c2c[nH]c3cc(Cl)ccc23)nc(C2CC2)c1CC(F)F [Example 79, 6-chloro-N-[4-cyclopropyl-5-(2,2-difluoroethyl)-6-methoxy-pyrimidin-2-yl]-1H-indole-3-sulfonamide] | 128
COc1nc(NS(=O)(=O)c2c[nH]c3cc(Cl)ccc23)nc(CC2CC2)c1Br [Example 80, N-[5-bromo-4-(cyclopropylmethyl)-6-methoxy-pyrimidin-2-yl]-6-chloro-1H-indole-3-sulfonamide] | 20800
COCc1nc(NS(=O)(=O)c2c[nH]c3cc(Cl)ccc23)nc(OC)c1Br [Example 81, N-[5-bromo-4-methoxy-6-(methoxymethyl)pyrimidin-2-yl]-6-chloro-1H-indole-3-sulfonamide] | 5700
COc1nc(NS(=O)(=O)c2c[nH]c3cc(Cl)ccc23)nc(C(C)(F)F)c1Br [Example 82, N-[5-bromo-4-(1,1-difluoroethyl)-6-methoxy-pyrimidin-2-yl]-6-chloro-1H-indole-3-sulfonamide] | 752
COc1nc(NS(=O)(=O)c2c[nH]c3cc(Cl)ccc23)nc(OCF)c1Br [Example 83, N-[5-bromo-4-(fluoromethoxy)-6-methoxy-pyrimidin-2-yl]-6-chloro-1H-indole-3-sulfonamide] | 78
COc1nc(NS(=O)(=O)c2c[nH]c3cc(Cl)ccc23)nc(C(F)F)c1Br [Example 84, N-[5-bromo-4-(difluoromethyl)-6-methoxy-pyrimidin-2-yl]-6-chloro-1H-indole-3-sulfonamide] | 521
COc1nc(NS(=O)(=O)c2c[nH]c3cc(Cl)ccc23)nc(CC#N)c1Br [Example 85, N-[5-bromo-4-(cyanomethyl)-6-methoxy-pyrimidin-2-yl]-6-chloro-1H-indole-3-sulfonamide] | 623
COc1nc(NS(=O)(=O)c2c[nH]c3cc(Cl)ccc23)nc(SC)c1OC(F)F [Example 86, 6-chloro-N-[5-(difluoromethoxy)-4-methoxy-6-methylsulfanyl-pyrimidin-2-yl]-1H-indole-3-sulfonamide] | 117
COc1nc(NS(=O)(=O)c2c[nH]c3cc(Br)ccc23)ncc1CC(F)F [Example 88, 6-bromo-N-[5-(2,2-difluoroethyl)-4-methoxy-pyrimidin-2-yl]-1H-indole-3-sulfonamide] | 33
COc1nc(NS(=O)(=O)c2c[nH]c3cc(Br)ccc23)ncc1CCC#N [Example 89, 6-bromo-N-[5-(2-cyanoethyl)-4-methoxy-pyrimidin-2-yl]-1H-indole-3-sulfonamide] | 212

Structure (SMILES) | IC50 [nM]
COc1nc(NS(=O)(=O)c2c[nH]c3cc(Br)ccc23)nc(OC)c1OC(F)F [Example 90, 6-bromo-N-[5-(difluoromethoxy)-4,6-dimethoxy-pyrimidin-2-yl]-1H-indole-3-sulfonamide] | 29
COc1nc(NS(=O)(=O)c2c[nH]c3cc(Br)ccc23)nc(OC)c1OCCF [Example 91, 6-bromo-N-[5-(2-fluoroethoxy)-4,6-dimethoxy-pyrimidin-2-yl]-1H-indole-3-sulfonamide] | 30
COc1nc(NS(=O)(=O)c2c[nH]c3cc(Br)ccc23)nc(OC)c1OCC(F)F [Example 92, 6-bromo-N-[5-(2,2-difluoroethoxy)-4,6-dimethoxy-pyrimidin-2-yl]-1H-indole-3-sulfonamide] | 18
COc1nc(NS(=O)(=O)c2c[nH]c3cc(Br)ccc23)nc(OC)c1CCC#N [Example 93, 6-bromo-N-[5-(2-cyanoethyl)-4,6-dimethoxy-pyrimidin-2-yl]-1H-indole-3-sulfonamide] | 10
COc1nc(NS(=O)(=O)c2c[nH]c3nc(C(F)F)ccc23)nc(OC)c1OC(F)F [Example 94, N-[5-(difluoromethoxy)-4,6-dimethoxy-pyrimidin-2-yl]-6-(difluoromethyl)-1H-pyrrolo[2,3-b]pyridine-3-sulfonamide] | 76
COc1nc(NS(=O)(=O)c2c[nH]c3nc(C(F)F)ccc23)nc(OC)c1CCC(F)F [Example 98, 6-(difluoromethyl)-N-[5-(3,3-difluoropropyl)-4,6-dimethoxy-pyrimidin-2-yl]-1H-pyrrolo[2,3-b]pyridine-3-sulfonamide] | 25
COc1nc(NS(=O)(=O)c2c[nH]c3nc(C(F)F)ccc23)nc(OC)c1OCC#N [Example 99, N-[5-(cyanomethoxy)-4,6-dimethoxy-pyrimidin-2-yl]-6-(difluoromethyl)-1H-pyrrolo[2,3-b]pyridine-3-sulfonamide] | 102
COc1nc(NS(=O)(=O)c2c[nH]c3cc(C(F)F)ccc23)ncc1OC(F)(F)CF [Example 100, 6-(difluoromethyl)-N-[4-methoxy-5-(1,1,2-trifluoroethoxy)pyrimidin-2-yl]-1H-indole-3-sulfonamide] | 160
COc1nc(NS(=O)(=O)c2c[nH]c3cc(C(F)F)ccc23)nc(OC)c1CCC#N [Example 103, N-[5-(2-cyanoethyl)-4,6-dimethoxy-pyrimidin-2-yl]-6-(difluoromethyl)-1H-indole-3-sulfonamide] | 11
COc1nc(NS(=O)(=O)c2c[nH]c3cc(OC(F)F)ccc23)ncc1CC(F)F [Example 104, N-[5-(2,2-difluoroethyl)-4-methoxy-pyrimidin-2-yl]-6-(difluoromethoxy)-1H-indole-3-sulfonamide] | 209
COc1nc(NS(=O)(=O)c2c[nH]c3c(SC(F)F)c(Cl)ccc23)ncc1CCC#N [Example 105, 6-chloro-N-[5-(2-cyanoethyl)-4-methoxy-pyrimidin-2-yl]-7-(difluoromethylthio)-1H-indole-3-sulfonamide] | 14
COc1nc(NS(=O)(=O)c2c[nH]c3c(SC(F)F)c(Cl)ccc23)nc(OC)c1OCCF [Example 106, 6-chloro-7-(difluoromethylthio)-N-[5-(2-fluoroethoxy)-4,6-dimethoxy-pyrimidin-2-yl]-1H-indole-3-sulfonamide] | 7
COc1nc(NS(=O)(=O)c2c[nH]c3c(SC(F)F)c(Cl)ccc23)nc(OC)c1CCC#N [Example 107, 6-chloro-N-[5-(2-cyanoethyl)-4,6-dimethoxy-pyrimidin-2-yl]-7-(difluoromethylthio)-1H-indole-3-sulfonamide] | 12
COc1nc(NS(=O)(=O)c2c[nH]c3c(Cl)cccc23)ncc1CC(F)F [Example 108, 7-chloro-N-[5-(2,2-difluoroethyl)-4-methoxy-pyrimidin-2-yl]-1H-indole-3-sulfonamide] | 642
COc1nc(NS(=O)(=O)c2c[nH]c3nc(Br)ccc23)nc(OC)c1OCCF [Example 109, 6-bromo-N-[5-(2-fluoroethoxy)-4,6-dimethoxy-pyrimidin-2-yl]-1H-pyrrolo[2,3-b]pyridine-3-sulfonamide] | 36
COc1nc(NS(=O)(=O)c2c[nH]c3nc(Br)ccc23)nc(OC)c1OC(F)(F)CF [Example 110, 6-bromo-N-[4,6-dimethoxy-5-(1,1,2-trifluoroethoxy)pyrimidin-2-yl]-1H-pyrrolo[2,3-b]pyridine-3-sulfonamide] | 25
